Test results published in paper PMC4445981, “The glutamate transport inhibitor DL-Threo-β-Benzyloxyaspartic acid (DL-TBOA) differentially affects SN38- and oxaliplatin-induced death of drug-resistant colorectal cancer cells” (BMC Cancer, 2015).

Experiments:
Type in all cases: cell-based, human
[1] = test system: CTR1; test: CTR1 protein level by Western blotting; conditions: 24 h
Procedure: Fig. 3 Effect of acute DL-TBOA and chemotherapy treatment on CTR1 protein level. Parental and drug-resistant HCT116 (a) and LoVo (b) cell lines were exposed to SN38 (0.8 μM) or oxaliplatin (20 μM), alone or in combination with 350 μM DL-TBOA as indicated for 24 h. Equal amounts of protein per lane were separated by SDS-PAGE and the protein levels of CTR1 were determined by Western blotting. Top: Representative Western blots (tubulin serves as a loading control), bottom: Densitometric quantification data summarized from 3 independent experiments per condition. Quantitative data are means with S.E.M. error bars of 3 independent experiments. *) p < 0.05, **) p < 0.01, ***) p < 0.001 compared to the control group without drug or TBOA treatment. Two-way ANOVA with Tukey post-test
Cells were grown to a confluence of 60-80 % and treated with chemotherapy, siRNA- or plasmid transfection as indicated. Cells were washed once in PBS, lysed in lysis buffer (1 % SDS, 0.1 M Tris pH 7.5, and 1 mM Na3VO4), sonicated, and protein content determined (DC assay, BioRad). Lysates were mixed 2:1with NuPage LDS sample buffer (Invitrogen). SDS-PAGE was carried out in NOVEX chambers with NuPAGE 10 % Bis-Tris gels under reducing and denaturing conditions, using BenchMark protein ladder (Invitrogen), and 15 μg protein per lane. […] Bands were scanned and quantified using UN-SCAN-IT (Silk Scientific).

[2] = test system: cellular reduced glutathione (GSH); test: Cellular GSH level; conditions: 24 h
Procedure: Fig. 4 Effect of glutamate transporter inhibition on cellular GSH levels. a Basal intracellular GSH levels were measured as described in Materials and Methods, and normalized to total protein in the samples. b-c Normalized basal GSH levels under control conditions, in HCT116 and LoVo parental and resistant cells after 24 h of treatment with 0.8 μM SN38 or 20 μM oxaliplatin, in absence or presence of DL-TBOA (350 μM) as shown. * p < 0.05 vs untreated control group (n = 5). One-way ANOVA followed by Dunnett post-test
Cells were seeded in 24-well plates (10^4 cells per well), treated the next day with chemotherapy and/or DL-TBOA and incubated for 24 h. Medium was removed and cells were washed twice with ice-cold PBS, which was removed and 500 μl ice-cold 1 % Sulfosalicylic acid was added per well. Cells were incubated on ice for at least 10 min. After centrifugation (1 min, 15,000 g), 10 μl lysate was used to determine total GSx content. To measure GSSG content, 130 μl sample was mixed with 55 μl 0.2 M Tris (pH 9) and 5 μl 2-Vinylpyridine. Tubes were vortexed carefully and incubated for at least 1 h at room temperature. 10 μl of this mix was mixed first with 90 μl of water in a 96-well plate and then with a reaction mix (0.1 M sodium phosphate buffer pH 7.5 containing 1 mM EDTA, 10 mM NADPH, 10 mM DTNB and 0.05 μl Glutathione reductase, 2U/μl). Measurements were taken every 30 s for 10 min in an ELISA plate reader (Thermo Scientific MultiScan FC) at 405 nm absorbance. GSH values were obtained by subtraction of GSSG values from GSx values.

[3] = test system: p53; test: p53 protein level by Western blotting; conditions: 24 h; for p53 protein level: 0.8 μM SN38 or 20 μM oxaliplatin
Procedure: Fig. 5 Effects of DL-TBOA on cell death and survival parameters after chemotherapy treatment. Parental and drug-resistant HCT116 (a) and LoVo (b) cell lines were exposed to SN38 (0.8 μM) or oxaliplatin (20 μM), alone or in combination with 350 μM DL-TBOA as indicated, for 24 h. Equal amounts of protein per lane were separated by SDS-PAGE and the protein level of p53 was determined by Western blotting. Top: Representative Western blots, with p150 as loading control. Bottom: Densitometric quantifications based on 3 independent experiments per condition. Data are means with S.E.M. error bars of 3 independent experiments. *) p < 0.05, **) p < 0.01, ***) p < 0.001,****) p < 0.0001 compared to the control group without drug or TBOA treatment; Two-way ANOVA with Tukey post-test
Cells were grown to a confluence of 60-80 % and treated with chemotherapy, siRNA- or plasmid transfection as indicated. Cells were washed once in PBS, lysed in lysis buffer (1 % SDS, 0.1 M Tris pH 7.5, and 1 mM Na3VO4), sonicated, and protein content determined (DC assay, BioRad). Lysates were mixed 2:1with NuPage LDS sample buffer (Invitrogen). SDS-PAGE was carried out in NOVEX chambers with NuPAGE 10 % Bis-Tris gels under reducing and denaturing conditions, using BenchMark protein ladder (Invitrogen), and 15 μg protein per lane. Proteins were transferred to PVDF membranes, which were Ponceau S stained, blocked for 1 h at 37 °C in 5 % nonfat dry milk in TBST (0.01 M Tris/HCl, 0.15 M NaCl, 0.1 % Tween 20, pH 7.4), incubated overnight at 4 °C with primary antibodies diluted in blocking buffer, washed in TBST, incubated with secondary antibodies for 1 h, washed in TBST, and developed using BCIP/NBT (KPL). Bands were scanned and quantified using UN-SCAN-IT (Silk Scientific).

[4] = test system: SLC1A1 localization in HCT116 cells; test: Immunofluorescence analysis of SLC1A1 subcellular localization; conditions: 48 h
Procedure: Immunofluorescence analysis was carried out essentially as in [47]. Cells grown on glass coverslips were fixed in 2 % paraformaldehyde, washed in TBST, permeabilized for 5 min (0.5 % Triton X-100 in TBST), blocked for 30 min in 5 % BSA in TBST, incubated with SLC1A1 primary antibody in TBST + 1 % BSA overnight at 4 °C, washed in TBST, and with Rhodamine-phalloidin and AlexaFluor488 conjugated secondary antibody (1:600 in TBS + 1 % BSA) for 1 h, followed by washing in TBST, and mounting in N-propyl-galleate mounting medium (2 % w/v in PBS/glycerol). DAPI was added for 3 min following incubation with the secondary antibody. Cells were visualized using the 60X/1.35 NA objective of an Olympus Bx63 epifluorescence microscope. […] Overlays were carried out using Adobe Photoshop software. No other image adjustment was performed.

[5] = parental HCT116 cells, 0.8 μM SN38 or 20 μM oxaliplatin

Compound	effect on CTR1 protein expression ([1]; 20 μM oxaliplatin, all cell lines except parental HCT116, HCT116-Oxa, LoVo-Oxa)	effect on cellular GSH levels [2, 5]	p53 protein level ([3]; SN38-resistant HCT116 cells)	p53 protein level ([3]; parental HCT116 cells)	SLC1A1 subcellular localization [4, 5]	effect on CTR1 protein level ([1]; 350 μM DL-TBOA +/- SN38 (0.8 μM) or oxaliplatin (20 μM), HCT116 and LoVo lines)	effect on cellular GSH levels ([2]; 350 μM DL-TBOA, HCT116 and LoVo parental and resistant cells)	effect on chemotherapy-induced p53 induction ([3]; 350 μM DL-TBOA concomitant to SN38 or oxaliplatin, parental and drug-resistant HCT116 and LoVo)	effect on SLC1A1 localization ([4]; SN38-resistant HCT116 cells, 350 μM DL-TBOA added to chemotherapeutic treatment)	effect on intracellular SLC1A1 localization ([4]; oxaliplatin-resistant HCT116 cells, control and oxaliplatin-treated, 350 μM DL-TBOA)	effect on SLC1A1 localization ([4]; parental HCT116 cells, 350 μM DL-TBOA alone or with chemotherapeutic agents)
O=C(O)C(=O)O.[NH-][C@@H]1CCCC[C@H]1[NH-].[Pt+2] [oxaliplatin]	tended to reduce CTR1 protein expression	slightly increased GSH levels	retained	markedly induced	marked shift in SLC1A1 localization towards the perinuclear/nuclear region	–	–	–	–	–	–
N[C@H](C(=O)O)[C@H](OCc1ccccc1)C(=O)O (racemic) [TBOA, DL-Threo-β-Benzyloxyaspartic acid]	–	–	–	–	–	without detectable effects	no detectable effect	apparent decrease in p53 induction	increased the fraction of SLC1A1 fluorescence localized to the perinuclear/nuclear compartment	partially reversed	no detectable effect on SLC1A1 localization
